The values below are quoted from earlier work in article PMC3065555 (European journal of medicinal chemistry, 2011).

The target of this data set is SERCA (Oryctolagus cuniculus, UniProt P04191). The note with it: training set compounds previously characterized; ref [1], [6], [32].
SERCA, sequence (P04191 1-994 isoform P04191-2): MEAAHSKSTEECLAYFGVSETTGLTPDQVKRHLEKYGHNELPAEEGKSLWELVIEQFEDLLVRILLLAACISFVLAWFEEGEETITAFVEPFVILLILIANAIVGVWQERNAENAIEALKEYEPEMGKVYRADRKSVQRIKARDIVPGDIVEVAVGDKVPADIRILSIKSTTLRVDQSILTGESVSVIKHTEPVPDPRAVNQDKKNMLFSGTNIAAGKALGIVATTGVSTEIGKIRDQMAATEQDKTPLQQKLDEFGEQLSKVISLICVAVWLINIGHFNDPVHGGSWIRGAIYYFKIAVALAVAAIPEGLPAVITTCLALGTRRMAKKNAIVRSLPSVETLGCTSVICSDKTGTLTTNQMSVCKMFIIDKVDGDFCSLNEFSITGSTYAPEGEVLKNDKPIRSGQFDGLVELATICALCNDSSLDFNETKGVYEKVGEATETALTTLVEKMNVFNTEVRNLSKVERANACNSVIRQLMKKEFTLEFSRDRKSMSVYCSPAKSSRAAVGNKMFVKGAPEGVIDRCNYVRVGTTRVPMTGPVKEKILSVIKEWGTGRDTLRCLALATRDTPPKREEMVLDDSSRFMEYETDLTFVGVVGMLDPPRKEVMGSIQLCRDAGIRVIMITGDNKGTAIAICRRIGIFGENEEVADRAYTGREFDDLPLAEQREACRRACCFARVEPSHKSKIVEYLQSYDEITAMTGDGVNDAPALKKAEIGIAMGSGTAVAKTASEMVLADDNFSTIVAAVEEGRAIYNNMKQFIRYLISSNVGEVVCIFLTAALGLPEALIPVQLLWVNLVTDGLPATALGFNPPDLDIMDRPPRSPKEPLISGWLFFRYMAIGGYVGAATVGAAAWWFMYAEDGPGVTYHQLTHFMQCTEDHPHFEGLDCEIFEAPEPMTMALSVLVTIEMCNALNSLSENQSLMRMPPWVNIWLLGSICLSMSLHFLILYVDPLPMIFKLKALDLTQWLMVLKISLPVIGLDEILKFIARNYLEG

Take `CC(C)(C)c1ccc(C(C)(C)C)c(O)c1` [2,5-di-tert-butylphenol]: the IC50 is 6.81 µM.
In the case of `CC(C)(C)c1ccc(C(C)(C)C)cc1` [1,4-di-tert-butylbenzene], the IC50 entry was “inactive”.

For orientation: IC50 means the concentration at which inhibition is half-maximal.
